Laboratory results from ChEMBL document CHEMBL1201862, “PubChem BioAssay data set” (2004).
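Test compounds were applied to cells in 96-well plates for 48 hours at 5 doses. The concentration for 50% growth inhibition is given as GI50.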 The source made the active and inactive calls. Cut-off read from the data, not from the text of the source: active = GI50 up to about 1.1 µM and inactive = higher.

Experiments:
Assay in all cases: NCI anticancer screen, dose series, 48 h
TK-10 = tested on: TK-10
MCF7 = tested on: MCF7
CCRF-CEM = tested on: CCRF-CEM
SF-268 = tested on: SF-268
UACC-62 = tested on: UACC-62
HCT-15 = tested on: HCT-15
Hs-578T = tested on: Hs-578T
HL-60 = tested on: HL-60
SK-OV-3 = tested on: SK-OV-3
OVCAR-3 = tested on: OVCAR-3
IGROV-1 = tested on: IGROV-1
LOX IMVI = tested on: LOX IMVI
K562 = tested on: K562
SF-539 = tested on: SF-539
ACHN = tested on: ACHN
SK-MEL-28 = tested on: SK-MEL-28
NCI-H522 = tested on: NCI-H522
NCI/ADR-RES = tested on: NCI/ADR-RES
OVCAR-8 = tested on: OVCAR-8
KM-20L2 = tested on: KM-20L2

SMILES	GI50 (TK-10)	GI50 (MCF7)	GI50 (CCRF-CEM)	GI50 (SF-268)	GI50 (UACC-62)	GI50 (HCT-15) [µM]	GI50 (Hs-578T)	GI50 (HL-60)	GI50 (SK-OV-3)	GI50 (OVCAR-3)	GI50 (IGROV-1)	GI50 (LOX IMVI)	GI50 (K562)	GI50 (SF-539)	GI50 (ACHN)	GI50 (SK-MEL-28)	GI50 (NCI-H522)	GI50 (NCI/ADR-RES)	GI50 (OVCAR-8)	GI50 (KM-20L2)
COC(=O)c1ccc2c(O)c(O)ccc2c1	21.5 µM (inactive)	18.5 µM (inactive)	2.69 µM (inactive)	19.4 µM (inactive)	15.9 µM (inactive)	13.6	27 µM (inactive)	2.02 µM (inactive)	18.1 µM (inactive)	7 µM (inactive)	17.2 µM (inactive)	2.87 µM (inactive)	2.36 µM (inactive)	19.1 µM (inactive)	17.1 µM (inactive)	16.3 µM (inactive)	15.2 µM (inactive)	20.1 µM (inactive)	16.1 µM (inactive)	
CC(Oc1ccccc1)C(=O)NN (centres undefined)	> 100 µM (inactive)	> 100 µM (inactive)	> 100 µM (inactive)	> 100 µM (inactive)	> 100 µM (inactive)	> 100	34.8 µM (inactive)	> 100 µM (inactive)	> 100 µM (inactive)	> 100 µM (inactive)	> 100 µM (inactive)	> 100 µM (inactive)	> 100 µM (inactive)	> 100 µM (inactive)	> 100 µM (inactive)	> 100 µM (inactive)	79.3 µM (inactive)	> 100 µM (inactive)	> 100 µM (inactive)	
CN(C(=O)Cc1cc(Cl)c(Cl)cc1N=C=S)[C@H]1CCCC[C@@H]1N1CCCC1	10.1 µM (inactive)	13.3 µM (inactive)	2.07 µM (inactive)	15.8 µM (inactive)	16.4 µM (inactive)	13.6	15.5 µM (inactive)	10.1 µM (inactive)	18 µM (inactive)	15.6 µM (inactive)	13.9 µM (inactive)	5.9 µM (inactive)	2.02 µM (inactive)	23.6 µM (inactive)	15.4 µM (inactive)	1.39 µM (inactive)	13.1 µM (inactive)	17.8 µM (inactive)	14 µM (inactive)	
C/C(=N/NS(=O)(=O)c1ccc(C)cc1)c1cccc[n+]1[O-]	> 100 µM (inactive)		> 100 µM (inactive)	> 100 µM (inactive)	> 100 µM (inactive)	> 100		> 100 µM (inactive)	> 100 µM (inactive)	> 100 µM (inactive)	> 100 µM (inactive)			> 100 µM (inactive)	> 100 µM (inactive)	> 100 µM (inactive)	> 100 µM (inactive)		> 100 µM (inactive)	> 100 µM (inactive)
COc1cc2nc(-c3cccs3)nc(N3CCN(c4ccccc4C(F)(F)F)CC3)c2cc1OC	45 µM (inactive)	46.2 µM (inactive)	7.23 µM (inactive)	60.3 µM (inactive)	76.7 µM (inactive)	> 100	89.9 µM (inactive)	3.87 µM (inactive)	> 100 µM (inactive)	21.5 µM (inactive)	25.9 µM (inactive)	> 100 µM (inactive)	83.6 µM (inactive)	55.6 µM (inactive)	> 100 µM (inactive)	> 100 µM (inactive)	90.4 µM (inactive)	> 100 µM (inactive)	93.3 µM (inactive)	
Cc1cc(C)c(C(=O)c2no[n+]([O-])c2C(=O)c2c(C)cc(C)c(Br)c2C)c(C)c1Br	9.31 µM (inactive)		2.59 µM (inactive)	11.5 µM (inactive)	10.7 µM (inactive)	13.5		3.35 µM (inactive)	20.7 µM (inactive)	13.6 µM (inactive)	6.15 µM (inactive)			15.5 µM (inactive)	12.6 µM (inactive)	14.4 µM (inactive)	10.9 µM (inactive)		10.9 µM (inactive)	16.2 µM (inactive)
C/C(CC(=O)CCCC(=O)Nc1ccc(Cl)cc1Cl)=N/NC(=O)CC#N	> 100 µM (inactive)		> 100 µM (inactive)	> 100 µM (inactive)	> 100 µM (inactive)	> 100		> 100 µM (inactive)	> 100 µM (inactive)	> 100 µM (inactive)	> 100 µM (inactive)	> 100 µM (inactive)	> 100 µM (inactive)	> 100 µM (inactive)	> 100 µM (inactive)	> 100 µM (inactive)			> 100 µM (inactive)	> 100 µM (inactive)
CCCCCCCCCCCc1nnc(N)o1	> 100 µM (inactive)			99.1 µM (inactive)	> 100 µM (inactive)	> 100		37.2 µM (inactive)	> 100 µM (inactive)	> 100 µM (inactive)	> 100 µM (inactive)	> 100 µM (inactive)	51.5 µM (inactive)	> 100 µM (inactive)	> 100 µM (inactive)	> 100 µM (inactive)	67 µM (inactive)		> 100 µM (inactive)	> 100 µM (inactive)
CCCCC1NC=Nc2c1ccc1c2[nH]c2ccccc21 (centres undefined)	5.71 µM (inactive)	1.55 µM (inactive)	1.67 µM (inactive)	4 µM (inactive)	4.27 µM (inactive)	2.39	2.14 µM (inactive)	1.78 µM (inactive)	5.87 µM (inactive)	6.1 µM (inactive)	3.08 µM (inactive)	1.94 µM (inactive)	1.87 µM (inactive)	3.05 µM (inactive)	3.61 µM (inactive)	10.3 µM (inactive)	1.84 µM (inactive)	1.95 µM (inactive)	2.03 µM (inactive)	
CCC(C#N)(c1ccccc1)N(CCc1ccccc1)C(=O)c1ccccc1 (centres undefined)	62.1 µM (inactive)	> 100 µM (inactive)	> 100 µM (inactive)	88.5 µM (inactive)	49.5 µM (inactive)	> 100	18.2 µM (inactive)	> 100 µM (inactive)	32.8 µM (inactive)	85.9 µM (inactive)	46.9 µM (inactive)	> 100 µM (inactive)	> 100 µM (inactive)	15.6 µM (inactive)	51.2 µM (inactive)	42.6 µM (inactive)	> 100 µM (inactive)	54.3 µM (inactive)	20 µM (inactive)	
CC(=O)OCC1OC(n2cccnc2=O)C(OC(C)=O)C1OC(C)=O (centres undefined)	> 100 µM (inactive)		> 100 µM (inactive)	> 100 µM (inactive)	> 100 µM (inactive)	> 100		> 100 µM (inactive)	> 100 µM (inactive)	> 100 µM (inactive)		> 100 µM (inactive)	> 100 µM (inactive)		> 100 µM (inactive)	> 100 µM (inactive)	> 100 µM (inactive)		> 100 µM (inactive)	> 100 µM (inactive)
COc1ccc(NC(=O)C2C(=O)N(c3ccc(OC)cc3)C(=O)/C2=N\NC(N)=O)cc1 (centres undefined)	23.9 µM (inactive)			20.2 µM (inactive)	16.6 µM (inactive)	> 100			22.1 µM (inactive)	34 µM (inactive)	19.7 µM (inactive)	65.8 µM (inactive)	> 100 µM (inactive)	16.8 µM (inactive)	27.6 µM (inactive)	59.7 µM (inactive)	45.6 µM (inactive)		19.4 µM (inactive)	49.5 µM (inactive)
COc1cccc(C(=O)C2C(=O)N(C)CCc3ccccc32)c1OC (centres undefined)	> 100 µM (inactive)		> 100 µM (inactive)	> 10 µM (inactive)	> 100 µM (inactive)	> 100		> 100 µM (inactive)	> 100 µM (inactive)	> 100 µM (inactive)	> 100 µM (inactive)	> 100 µM (inactive)	> 100 µM (inactive)		> 100 µM (inactive)	> 100 µM (inactive)	> 100 µM (inactive)		> 100 µM (inactive)	> 100 µM (inactive)
COC(=O)C1=C(OC(=O)/C(=C/c2ccc(Cl)cc2)c2ccccc2)C(C(=O)OC)[C@@]2(O)[C@@H](C(=O)OC)[C@H](C)C[C@@H]1[C@@H]2C(=O)OC (some centres undefined)	> 100 µM (inactive)	> 100 µM (inactive)	> 100 µM (inactive)	> 100 µM (inactive)	83.6 µM (inactive)	> 100	37 µM (inactive)	> 100 µM (inactive)	> 100 µM (inactive)	> 100 µM (inactive)	23.6 µM (inactive)	> 100 µM (inactive)	> 100 µM (inactive)	> 100 µM (inactive)	> 100 µM (inactive)	> 100 µM (inactive)	6 µM (inactive)	37.4 µM (inactive)	4.45 µM (inactive)	
CC(Oc1ccc(Cl)cc1Cl)C(=O)NN1C(=O)CSC1c1ccccc1 (centres undefined)	> 100 µM (inactive)	55.3 µM (inactive)	66.7 µM (inactive)	60.5 µM (inactive)	50.2 µM (inactive)	> 100	45.6 µM (inactive)	27.3 µM (inactive)	55.8 µM (inactive)	96.4 µM (inactive)	54 µM (inactive)	69 µM (inactive)	63.4 µM (inactive)	> 100 µM (inactive)	68.5 µM (inactive)	50.5 µM (inactive)	56.2 µM (inactive)	86.3 µM (inactive)	51.1 µM (inactive)	
Nc1ccc(-c2nc3ccccc3s2)cc1I	0.0521 µM (active)	< 0.0116 µM (active)	30.1 µM (inactive)	> 33.5 µM (inactive)	> 73.6 µM (inactive)	44.3	> 100 µM (inactive)	24.2 µM (inactive)	> 65.6 µM (inactive)	0.0614 µM (active)	0.0107 µM (active)	44.8 µM (inactive)	39.2 µM (inactive)	77.8 µM (inactive)	> 87.1 µM (inactive)	> 100 µM (inactive)	31.1 µM (inactive)	> 100 µM (inactive)	> 96.2 µM (inactive)	
